“And” between values parts separate entries of the source, which are not always exact repeats. Identical values can stand only once. Counter-ions that a name gives are not always drawn. Like-named read-outs stand apart in the source and are kept apart here.
How the values were obtained:
[1] = test system: skin of healthy volunteers; set-up: species or system human; conditions: in vivo
Procedure: (§1) This study describes a randomized, single site, double-blind, two treatment, two period, two sequence, cross-over clinical pharmacology study which was performed according to FDA regulations in 27 healthy normal volunteers with fair skin that could easily burn when exposed to sunlight, to assess the photosensitivity and/or phototoxicity potential of oral 400 mg lomefloxacin hydrochloride (MAXAQUIN®) administered once daily for 4 consecutive days either in the morning (morning dose group), as described hereinbelow, or in the early evening (evening dose group), as described hereinbelow. Irradiation and evaluation of irradiated sites began at 2 hours after the final morning dose of lomefloxacin HCl for the morning dosing group, and began 16 hours after the final evening dose of lomefloxacin HCl for the evening dosing group.
(§2) "Baseline MED" was defined as the lowest dose of UVA radiation alone, or UVA and UVB radiation, that produced a minimal perceptible erythema filling a 1 cm^2 patch of skin 24 hours post radiation.
(§3) "Delayed MED" was defined as the lowest dose of UVA radiation alone, or UVA and UVB radiation, that produced a minimal perceptible erythema filling a 1 cm^2 patch of skin, when testing the area 24, 48 and 72 hours post radiation.
(§4) "Immediate MED" was defined as the lowest dose producing minimal perceptible erythema filling a 1 cm^2 patch of skin when testing the area 0, 3, and 6 hours post radiation.
(§5) After all baseline procedures, including determination of baseline MEDUVA and MEDUVA+UVB values 24 hours post-radiation, were completed, all subjects started Study Day 1 of Treatment Period 1 with an evening dose of study medication, and completed this phase of the treatment regime with a morning dose of study medication on Study Day 5. Two hours after the final morning dose, and 16 hours after the last evening dose, a randomly selected site composed of six patches of skin, each with an area of one square centimeter, on the back or buttock of the subject was irradiated with incremental amounts of energy. Immediately following irradiation (0 hour), and at 3, 6, 24, 48 and 72 hours following irradiation, each skin patch area was evaluated to determine the MEDs, and assess the severity of skin reaction using a five-grade system, as described hereinbelow. The lowest of the MEDs determined at 0, 3 and 6 hours post-radiation were referred to as immediate MEDs, and the lowest of the MEDs determined at 24, 48 and 72 hours post-radiation were referred to as delayed MEDs.
(§6) The source of radiation employed was an Oriel (Santa Monica, Calif.) Xenon Arc 1000 watt solar simulator, with the following filters: WG320 filter (1 mm thick, emitting full spectrum UVA and UVB radiation), WG335 filter (3 mm thick, emitting almost exclusively UVA radiation) or UG11 filter (to filter infrared radiation).
(§7) For predrug exposure MED determination, 2 sets each with six 1 cm^2 patches on the back or buttocks were irradiated with increasing doses of UVA and UVB radiation, and UVA radiation alone, up to 7 days prior to beginning of drug treatment. With respect to UVA light source, irradiation began at 5 J/cm^2, and was increased by increments of 5 J/cm^2 using a different skin patch for each exposure. The maximum radiation dose was 30 J/cm^2. Subjects with MED greater than 30 J/cm^2 were excluded from the study. […] A different skin patch was used for each exposure.
(§8) Two hours after the administration of the last dose of Treatment Period 1 (a.m. dose), the two randomly selected sites on each subject's back or buttocks were exposed one to UVA and UVB radiation, and one to UVA radiation alone. In order to protect the subjects from excessive radiation, as well as assess the true Minimum Erythema Dose (MED), the posttreatment irradiation doses for each subject was adjusted in accordance with their pretreatment MEDs. The following table was used to determine each subject's minimum and maximum posttreatment radiation dose: […]

[2] = test system: Pseudomonas aeruginosa; assay: Activity in vitro and in clinical infections; assay type: cell-based
[3] = test system: skin; conditions: humans and animals; cited from earlier work
[4] = test system: skin of healthy volunteers; assay: Example 5: Minimum Erythema Dose with UVA radiation, morning vs evening dosing; assay type: in vivo, human; conditions: for phototoxicity of evening versus morning dosing: UVA exposure 16 hours vs 2 hours after dosing; for DELAYED MED / IMMEDIATE MED / MED, 0 H / MED, 3 H / MED, 6 H / MED, 24 H / MED, 48 H / MED, 72 H / CHANGE BASELINE, delayed MED / CHANGE BASELINE, immediate MED: individual subjects; for MED, 0 H: 0 H post-radiation; for MED, 3 H: 3 H post-radiation; for MED, 6 H: 6 H post-radiation; for MED, 24 H: 24 H post-radiation; for MED, 48 H: 48 H post-radiation; for MED, 72 H: 72 H post-radiation; for CHANGE BASELINE, delayed MED / CHANGE BASELINE, immediate MED: baseline minus posttreatment
Procedure: as §1, §2, §3, §4, §5, §6, §7, §8

[5] = Pharmacokinetics of lomefloxacin in humans (general description); assay type: in vivo, human
[6] = mean, UVA, a.m. dosing, p=0.002

## CCn1cc(C(=O)O)c(=O)c2cc(F)c(N3CCNC(C)C3)c(F)c21 (racemic) [lomefloxacin HCl, monohydrochloride salt of (±)-1-ethyl-6,8-difluoro-1,4-dihydro-7-(3-methyl-1-piperazinyl)-4-oxo-3-quinolinecarboxylic acid]
[1]
  MED, 0 H, mean: 0.094 J/cm^2
  amount of UVA+UVB radiation to give MED versus UVA alone: over 100 times less
  change of immediate MEDUVA+UVB from baseline: not statistically significant
  change of immediate and delayed MEDUVA+UVB from baseline: neither the changes between baseline and posttreatment immediate MEDUVA+UVB, nor between baseline and posttreatment delayed MEDUVA+UVB, were statistically significant
  change of immediate and delayed MEDUVA+UVB, a.m. versus p.m.: statistically significant difference
  photosensitivity with UVA plus UVB radiation: no increase in photosensitivity
[2]
  activity against most strains: active against most strains
[3]
  photoreactions of quinolones: dose-dependent, drug-induced, UVA required photosensitivity reaction
[4]
  phototoxicity of evening versus morning dosing: less sensitive to light
[4]; listed as MAXAQUIN®
  phototoxicity of evening versus morning dosing: significantly less phototoxic
[4]; in vivo
  mean change of delayed MEDUVA, a.m. versus p.m.: statistically significant difference
  treatment effect on delayed MEDUVA, conservative analysis: statistically significant treatment effect
[4]; UVA, a.m. dosing
  DELAYED MED: 10.000 J/cm^2 and 20.000 J/cm^2 and 15.000 J/cm^2 and 30.000 J/cm^2 and 25.000 J/cm^2
  IMMEDIATE MED: 15.000 J/cm^2 and 20.000 J/cm^2 and 30.000 J/cm^2 and 25.000 J/cm^2
  MED, 0 H: 25.000 J/cm^2 and 30.000 J/cm^2 and 15.000 J/cm^2
  MED, 3 H: 15.000 J/cm^2 and 20.000 J/cm^2 and 25.000 J/cm^2
  MED, 6 H: 15.000 J/cm^2 and 20.000 J/cm^2 and 30.000 J/cm^2 and 25.000 J/cm^2
  MED, 24 H: 10.000 J/cm^2 and 20.000 J/cm^2 and 15.000 J/cm^2 and 30.000 J/cm^2 and 25.000 J/cm^2
  MED, 48 H: 15.000 J/cm^2 and 25.000 J/cm^2 and 30.000 J/cm^2 and 20.000 J/cm^2
  MED, 72 H: 15.000 J/cm^2 and 25.000 J/cm^2 and 20.000 J/cm^2 and 30.000 J/cm^2
  CHANGE BASELINE, delayed MED: 20.000 J/cm^2 and 5.000 J/cm^2 and 10.000 J/cm^2 and -5.000 J/cm^2
  CHANGE BASELINE, immediate MED: 15.000 J/cm^2 and 5.000 J/cm^2 and 10.000 J/cm^2 and -5.000 J/cm^2
[4]; UVA, p.m. dosing
  DELAYED MED: 30.000 J/cm^2 and 25.000 J/cm^2 and 20.000 J/cm^2
  IMMEDIATE MED: 30.000 J/cm^2 and 25.000 J/cm^2
  MED, 0 H: 30.000 J/cm^2 and 25.000 J/cm^2
  MED, 3 H: 30.000 J/cm^2
  MED, 6 H: 30.000 J/cm^2 and 25.000 J/cm^2
  MED, 24 H: 30.000 J/cm^2 and 25.000 J/cm^2
  MED, 48 H: 30.000 J/cm^2 and 20.000 J/cm^2 and 25.000 J/cm^2
  MED, 72 H: 30.000 J/cm^2 and 25.000 J/cm^2
  CHANGE BASELINE, delayed MED: -5.000 J/cm^2 and 0.000 J/cm^2 and 5.000 J/cm^2
  CHANGE BASELINE, immediate MED: -5.000 J/cm^2 and 5.000 J/cm^2 and 0.000 J/cm^2
[4]; mean, UVA, a.m. dosing
  DELAYED MED, mean: 20.000 J/cm^2
  IMMEDIATE MED, mean: 19.615 J/cm^2
  MED, 0 H, mean: 25.500 J/cm^2
  MED, 3 H, mean: 20.833 J/cm^2
  MED, 6 H, mean: 19.615 J/cm^2
  MED, 24 H, mean: 20.385 J/cm^2
  MED, 48 H, mean: 22.692 J/cm^2
  MED, 72 H, mean: 23.077 J/cm^2
[4]; [6]
  CHANGE BASELINE, delayed MED, mean: 6.5 J/cm^2 and 6.538 J/cm^2
  CHANGE BASELINE, immediate MED, mean: 6.923 J/cm^2 and 6.9 J/cm^2
[4]; mean, UVA, p.m. dosing
  DELAYED MED, mean: 27.917 J/cm^2
  IMMEDIATE MED, mean: 28.750 J/cm^2
  MED, 0 H, mean: 28.333 J/cm^2
  MED, 3 H, mean: 30.000 J/cm^2
  MED, 6 H, mean: 28.750 J/cm^2
  MED, 24 H, mean: 28.333 J/cm^2
  MED, 48 H, mean: 28.182 J/cm^2
  MED, 72 H, mean: 28.500 J/cm^2
[4]; mean, UVA, p.m. dosing, p=1.000
  CHANGE BASELINE, delayed MED, mean: 0.000 J/cm^2
[5]; 400 mg oral
  drug concentrations in many body tissues and fluids versus systemic circulation: comparable to or higher than drug concentrations in systemic circulation
[5]; healthy volunteers
  absorption rate: rapidly absorbed
  time to steady-state: by the end of the second day of dosing
[5]; human urine
  number of metabolites identified: 5 metabolites
[5]; human, feces, oral dose, read-out: unchanged drug recovered in the feces
  dose excreted: ~10%
[5]; human, serum, healthy volunteers, after dosing, read-out: time to peak serum concentrations
  Tmax: 1 to 2 h
[5]; in vivo
  metabolism: minimally metabolized
  route of elimination: primarily eliminated by renal excretion
[5]; orally-administered
  oral absorption: one hundred

Source: US5668134A, “Method for preventing or reducing photosensitivity and/or phototoxicity reactions to medications” (priority 1994, dated 1997)
